We go through 20 molecules from US20240327382A1 (ALMAC DISCOVERY LIMITED, priority 2021, published 2024).

Some results are limits rather than exact numbers.

This experiment addresses T1, Full-length USP19 (Homo sapiens, UniProt O94966).
T1 construct: Full-length USP19 was purchased from Boston Biochem (E-576); purchased Boston Biochem E-576
T1 sequence (O94966 1-1318): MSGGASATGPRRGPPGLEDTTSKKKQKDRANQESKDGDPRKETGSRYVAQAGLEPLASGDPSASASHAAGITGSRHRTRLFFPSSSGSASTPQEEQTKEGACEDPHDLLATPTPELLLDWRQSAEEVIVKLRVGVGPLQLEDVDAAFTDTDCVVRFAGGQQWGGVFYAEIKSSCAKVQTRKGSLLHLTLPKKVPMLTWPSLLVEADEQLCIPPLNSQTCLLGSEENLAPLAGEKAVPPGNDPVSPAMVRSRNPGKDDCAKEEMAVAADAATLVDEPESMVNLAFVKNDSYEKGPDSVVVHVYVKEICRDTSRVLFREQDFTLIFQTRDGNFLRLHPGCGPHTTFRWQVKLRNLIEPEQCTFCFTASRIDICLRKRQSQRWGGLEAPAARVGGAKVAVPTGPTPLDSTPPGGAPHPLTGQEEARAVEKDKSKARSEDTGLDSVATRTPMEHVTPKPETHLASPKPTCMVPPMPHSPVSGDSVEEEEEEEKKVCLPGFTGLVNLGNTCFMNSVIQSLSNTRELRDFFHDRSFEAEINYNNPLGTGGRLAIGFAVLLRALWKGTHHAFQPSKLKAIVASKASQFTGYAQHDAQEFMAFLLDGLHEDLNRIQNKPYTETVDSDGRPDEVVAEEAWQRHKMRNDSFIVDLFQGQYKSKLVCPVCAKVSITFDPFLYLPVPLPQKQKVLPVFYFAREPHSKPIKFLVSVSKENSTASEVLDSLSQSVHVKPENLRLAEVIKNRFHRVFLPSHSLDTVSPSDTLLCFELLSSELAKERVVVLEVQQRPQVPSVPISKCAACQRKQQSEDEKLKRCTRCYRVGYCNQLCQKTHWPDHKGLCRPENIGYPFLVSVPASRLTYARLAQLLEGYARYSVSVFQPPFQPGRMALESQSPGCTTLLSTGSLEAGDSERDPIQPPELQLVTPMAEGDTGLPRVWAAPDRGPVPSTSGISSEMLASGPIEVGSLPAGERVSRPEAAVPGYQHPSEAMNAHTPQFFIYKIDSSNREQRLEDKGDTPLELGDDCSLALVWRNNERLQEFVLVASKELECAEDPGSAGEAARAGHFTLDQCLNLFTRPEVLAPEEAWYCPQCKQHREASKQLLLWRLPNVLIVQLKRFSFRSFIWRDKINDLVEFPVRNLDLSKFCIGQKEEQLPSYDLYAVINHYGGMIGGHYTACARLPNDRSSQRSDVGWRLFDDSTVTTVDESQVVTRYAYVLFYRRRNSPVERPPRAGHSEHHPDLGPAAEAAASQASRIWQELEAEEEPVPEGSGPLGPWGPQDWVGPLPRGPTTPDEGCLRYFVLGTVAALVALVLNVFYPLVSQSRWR
The experiment is described as follows: USP19 fluorescence polarisation (FP) assay, Ubiquitin-Lys-TAMRA substrate. It counts as biochemical. Particulars: average of at least two duplicate experiments. The method in brief:
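Full-length human USP19 (added at 2.5 nM) was preincubated 30 min at RT with inhibitor (serial dilutions 200 μM to 2 μM) in 50 mM HEPES pH 7.4, 150 mM NaCl, 5 mM DTT, 0.05% BSA, 0.05% CHAPS. Ubiquitin-Lys-TAMRA isopeptide substrate (added at 500 nM) started the reaction, and FP (Ex 530/Em 575 nm) was read every 15 min over 90 min. IC50 came from non-linear regression of signal normalised to no-compound control, averaged over at least two duplicate experiments.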
On the technique in general: Fluorescence polarisation rises when a labelled molecule tumbles more slowly, as on binding a larger partner.
For the molecule `O=C(N[C@@H]1CCN(C(=O)N2CC[C@@H](Cn3cnc4ccc(F)cc4c3=O)C3(CCCC3)C2)[C@H](c2cc(F)ccc2F)C1)C1CC1` [Example 173, N-((2S,4R)-2-(2,5-Difluorophenyl)-1-((R)-10-((6-fluoro-4-oxoquinazolin-3(4H)-yl)methyl)-7-azaspiro[4.5]decane-7-carbonyl)piperidin-4-yl)cyclopropanecarboxamide], the IC50 – broadly, the point on the concentration scale where inhibition reaches its midpoint – is 10 to 100 nM. Regarding `CN[C@@H]1CCN(C(=O)N2CC[C@@H](Cn3ccc(-c4ccccc4OC)cc3=O)C3(CCCC3)C2)[C@H](c2ccccc2)C1` [Example 53, 4-(2-Methoxyphenyl)-1-(((R)-7-((2S,4R)-4-(methylamino)-2-phenylpiperidine-1-carbonyl)-7-azaspiro[4.5]decan-10-yl)methyl)pyridin-2(1H)-one], the 50% inhibitory concentration (IC50) is less than 10 nM.

In the case of `CC1(C)CN(C(=O)N2CC[C@@H](N)C[C@H]2c2ccccc2)CC[C@H]1Cn1ccc(-c2ccccc2)cc1=O` [Example 69, 1-(((R)-1-((2S,4R)-4-Amino-2-phenylpiperidine-1-carbonyl)-3,3-dimethylpiperidin-4-yl)methyl)-4-phenylpyridin-2(1H)-one], the IC50 was less than 10 nM. As for `COc1ccccc1-c1ccn(C[C@@H]2CCN(C(=O)N3CC[C@@H](N)C[C@H]3c3cc(F)ccc3F)CC23CCCC3)c(=O)c1` [Example 89, 1-(((R)-7-((2S,4R)-4-Amino-2-(2,5-difluorophenyl)piperidine-1-carbonyl)-7-azaspiro[4.5]decan-10-yl)methyl)-4-(2-methoxyphenyl)pyridin-2(1H)-one], the figure is less than 10 nM; as for `CSc1ncc2c(=O)n(CC3CCN(C(=O)N4CC[C@@H](N)C[C@H]4c4ccccc4)CC34CCCC4)ccc2n1` (stereo partly drawn) [Example 40, 6-((7-((2S,4R)-4-Amino-2-phenylpiperidine-1-carbonyl)-7-azaspiro[4.5]decan-10-yl)methyl)-2-(methylthio)pyrido [4,3-d]pyrimidin-5(6H)-one], less than 10 nM. As for `CN[C@@H]1CCN(C(=O)N2CC[C@@H](CN3CCOCC3=O)C3(CCCC3)C2)[C@H](c2cc(F)ccc2F)C1` [Example 159, 4-(((R)-7-((2S,4R)-2-(2,5-Difluorophenyl)-4-(methylamino)piperidine-1-carbonyl)-7-azaspiro[4.5]decan-10-yl)methyl)morpholin-3-one], the figure is less than 10 nM.

With `O=C(N1CC[C@@H](Cn2cnc(-c3ccccc3)cc2=O)C2(CCCC2)C1)N1CC[C@@H](NC2CC2)C[C@H]1c1ccccc1` [Example 79, 3-(((R)-7-((2S,4R)-4-(Cyclopropylamino)-2-phenylpiperidine-1-carbonyl)-7-azaspiro[4.5]decan-10-yl)methyl)-6-phenylpyrimidin-4(3H)-one], the IC50 is less than 10 nM.

In the case of `CN[C@@H]1CCN(C(=O)N2CC[C@@H](Cn3cnc(-c4ccccc4)cc3=O)C3(CCCC3)C2)[C@H](c2cccc(F)c2)C1` [Example 63, 3-(((R)-7-((2S,4R)-2-(3-Fluorophenyl)-4-(methylamino)piperidine-1-carbonyl)-7-azaspiro[4.5]decan-10-yl)methyl)-6-phenylpyrimidin-4(3H)-one], the IC50 is less than 10 nM. As for `N[C@@H]1CCN(C(=O)N2CCC(Cn3cnc(C(F)(F)F)cc3=O)C3(CCCC3)C2)[C@H](c2ccccc2)C1` (stereo partly drawn) [Example 34, 3-((7-((2S,4R)-4-Amino-2-phenylpiperidine-1-carbonyl)-7-azaspiro[4.5]decan-10-yl)methyl)-6-(trifluoromethyl) pyrimidin-4(3H)-one], the figure is 10 to 100 nM; as for `C[C@H](CC(F)(F)F)C(=O)N1CCC(Cn2ccc(-c3ccccc3)cc2=O)C2(CCCC2)C1` (stereo partly drawn) [Example 5, 4-Phenyl-1-((7-((R)-4,4,4-trifluoro-2-methylbutanoyl)-7-azaspiro[4.5]decan-10-yl)methyl)pyridin-2(1H)-one], 1000 to 20000 nM.

Regarding `CN[C@@H]1CCN(C(=O)N2CC[C@@H](Cn3cnc4ccc(F)cc4c3=O)C3(CCCC3)C2)[C@H](c2ccccc2)C1` [Example 101, 6-Fluoro-3-(((R)-7-((2S,4R)-4-(methylamino)-2-phenylpiperidine-1-carbonyl)-7-azaspiro[4.5]decan-10-yl)methyl)quinazolin-4(3H)-one], the IC50 was less than 10 nM. As for `CN[C@@H]1CCN(C(=O)N2CC[C@@H](Cn3ccc(-c4ccccc4)cc3=O)C3(CCCC3)C2)[C@H](c2ccc(F)cc2F)C1` [Example 95, 1-(((R)-7-((2S,4R)-2-(2,4-Difluorophenyl)-4-(methylamino)piperidine-1-carbonyl)-7-azaspiro[4.5]decan-10-yl)methyl)-4-phenylpyridin-2(1H)-one], the figure is less than 10 nM; as for `COc1ccccc1-c1cc(=O)n(C[C@@H]2CCN(C(=O)N3CCNC[C@H]3c3cc(F)ccc3F)CC23CCCC3)cn1` [Example 116, 3-(((R)-7-((R)-2-(2,5-Difluorophenyl)piperazine-1-carbonyl)-7-azaspiro[4.5]decan-10-yl)methyl)-6-(2-methoxyphenyl)pyrimidin-4(3H)-one], less than 10 nM; as for `CCN[C@@H]1CCN(C(=O)N2CCC(Cn3cnc(-c4ccccc4)cc3=O)CC2)[C@H](c2ccccc2)C1` [Example 75, 3-((1-((2S,4R)-4-(Ethylamino)-2-phenylpiperidine-1-carbonyl)piperidin-4-yl)methyl)-6-phenylpyrimidin-4(3H)-one], 10 to 100 nM. For the molecule `CN[C@@H]1CCN(C(=O)N2CC[C@@H](Cn3cnc(-c4ccccc4)cc3=O)C3(CCCC3)C2)[C@H](c2ccc(F)c(F)c2)C1` [Example 133, 3-(((R)-7-((2S,4R)-2-(3,4-Difluorophenyl)-4-(methylamino)piperidine-1-carbonyl)-7-azaspiro[4.5]decan-10-yl)methyl)-6-phenylpyrimidin-4(3H)-one], the IC50 was less than 10 nM.

On to `CC1(c2cc(=O)n(CC3CCN(C(=O)N4CC[C@@H](N)C[C@H]4c4ccccc4)CC34CCCC4)cn2)CC1` (stereo partly drawn) [Example 36, 3-((7-((2S,4R)-4-Amino-2-phenylpiperidine-1-carbonyl)-7-azaspiro[4.5]decan-10-yl)methyl)-6-(1-methylcyclopropyl) pyrimidin-4(3H)-one], for which the IC50 was less than 10 nM.

In the case of `Cc1ccccc1-c1cc(=O)n(C[C@@H]2CCN(C(=O)N3CC[C@@H](N)C[C@H]3c3cccc(F)c3)CC23CCCC3)cn1` [Example 81, 3-(((R)-7-((2S,4R)-4-Amino-2-(3-fluorophenyl)piperidine-1-carbonyl)-7-azaspiro[4.5]decan-10-yl)methyl)-6-(0-tolyl)pyrimidin-4(3H)-one], the concentration for half-maximal inhibition (IC50) is less than 10 nM. `CN[C@@H]1CCN(C(=O)N2CC[C@@H](Cn3cnc4ccc(F)cc4c3=O)C3(CCCC3)C2)[C@H](c2cc(F)cc(F)c2)C1` [Example 153, 3-(((R)-7-((2S,4R)-2-(3,5-Difluorophenyl)-4-(methylamino)piperidine-1-carbonyl)-7-azaspiro[4.5]decan-10-yl)methyl)-6-fluoroquinazolin-4(3H)-one]: the 50% inhibitory concentration (IC50) is less than 10 nM. Take `N[C@@H]1CCN(C(=O)N2CC[C@@H](Cn3cnc(-c4ccccc4)cc3=O)C3(CCCC3)C2)[C@H](c2ccc(F)cc2F)C1` [Example 80, 3-(((R)-7-((2S,4R)-4-Amino-2-(2,4-difluorophenyl)piperidine-1-carbonyl)-7-azaspiro[4.5]decan-10-yl)methyl)-6-phenylpyrimidin-4(3H)-one]: the 50% inhibitory concentration (IC50) was less than 10 nM.

Regarding `CN[C@@H]1CCN(C(=O)N2CC[C@@H](Cn3cnc(-c4ccccc4)cc3=O)C3(CCCC3)C2)[C@H](c2cccc(F)c2F)C1` [Example 132, 3-(((R)-7-((2S,4R)-2-(2,3-Difluorophenyl)-4-(methylamino)piperidine-1-carbonyl)-7-azaspiro[4.5]decan-10-yl)methyl)-6-phenylpyrimidin-4(3H)-one], the IC50 is less than 10 nM.
